Measurements reported in patent US20190247376A1, “NICOTINIC ACETYLCHOLINE RECEPTOR AGONIST ATTENUATES ILC2-DEPENDENT AIRWAY HYPERREACTIVITY” (University of Southern California, priority 2016, published 2019).

Assays:
lung ILC2s = test: Flow cytometry of proliferation, transcription factor and signalling markers in lung ILC2s; type: cell-based, mouse; conditions: BALB/cByJ mice, rm-IL-33 0.5 μg, agonist 125 μg, three consecutive days
Source text: FIGS. 5A-5F: Cholinergic signal attenuates ILC2 proliferation and GATA3 expression. (FIG. 5A) Mean fluorescence intensity of Ki67 and percentage of Ki67+ cells in isolated lung ILC2s, stimulated with IL-33 in the absence and presence of α7nAChR. (FIG. 5B) Mean fluorescence intensity of GATA3 in isolated lung ILC2s, stimulated with IL-33 in the absence and presence of α7nAChR. One representative experiment of two is shown (n=5; Student's t test *, p<0.05; **, p<0.01; ***p<0.001). […] FACS-purified ILC2s from WT mice challenged with rm-IL-33 with or without α7nAChR agonist as described in FIG. 3A were quantified by NanoString nCounter technology. Data range from −1 to +1 for the most reduced and most increased gene expression, respectively. (FIG. 5D) Expression of NF-κB p65 in isolated lung ILC2s from mice challenged with IL-33 with (dotted line) or without (thick line) α7nAChR agonist. The level of isotype-matched stain control is shown as a gray-filled histogram. (FIG. 5E) Expression of phosphorylated IKKα/β (Ser176/180) in isolated lung ILC2s stimulated with IL-33, with (dotted line) or without (thick line) α7nAChR agonist for 24 hours. The level of isotype-matched stain control is shown as a gray-filled histogram. (FIG. 5F) Mean fluorescence intensity of phosphorylated IKKα/β with or without α7nAChR agonist.
FIGS. 9A-9C: Effect of α7nAChR agonist on some marker expressions by ILC2s. A cohort of BALB/cByJ mice were intranasally challenged with rm-IL-33 (0.5 μg) with or without α7nAChR agonist (125 μg) for three consecutive days. Histogram and MFI of CD25 (FIG. 9A), CD127 (FIG. 9B) and ST2 (FIG. 9C) in isolated lung ILC2s. Data are representative of at least two independent experiments and are presented as means±SEM (n=4; Student's t test *, p<0.05).
Biotinylated anti-mouse lineage (CD3e (145-2C11), CD45R (RA3-3B2), Gr-1 (RB6-8C5), CD11c (N418), CD11b (M1/70), Ter119 (TER-119), NK1.1 (PK136), TCR-β (H57-597), TCR-γδ (GL3), and FcεRIα (MAR-1), Streptavidin-FITC, FITC anti-mouse CD3 (145-2C11), BV510 anti-mouse CD4 (RM4-5), APC-Cy7 anti-mouse CD25 (PC61), PE anti-mouse CD25 (PC61), BV421 anti-mouse CD25 (PC61), BV510 anti-mouse CD90.2 (53-2.1), APC anti-mouse CD127 (A7R34), PE-Cy7 anti-mouse CD127 (A7R34), FITC anti-mouse CD45 (30F-11), PE/Cy7 anti-mouse CD45 (30-F11), PE anti-mouse IL-5 (TRFK5), BV421 anti-mouse GATA3 (16E10A23), 7-AAD Viability staining solution, purchased from BioLegend (San Diego, Calif.). PE anti-mouse ST2 (IL-33R, RMST2-2), PerCP-eFluor710 anti-Mouse ST2 (RMST2-2), Streptavidin APC-eFluor780, Alexa Fluor647 labeled anti-IL-4 (clone 11B11), eFluor 450 anti-mouse CD45 (30F-11), eFluor450 anti-CD44 (clone IM7), eFluor-660 anti-mouse Ki-67 (SollA15), PE/Cy7 anti-mouse IL-13 (eBio13A), anti-mouse BCL-2 (10C4), were purchased from eBioscience. Alexa Fluor 488 anti-mouse p65-NF-κB (532301) was purchased from R&D Systems (dilution 1:50). Alexa Fluor 647 conjugated α-bungarotoxin (Invitrogen, San Diego, Calif.). PE anti-mouse Phospho-IKKα/β (Ser 176/180) (16A6) was purchased from Cell Signaling Technology (dilution 1:50). PE anti-rat α7nAChR (319) was purchased from Santa Cruz Biotechnology (dilution 1:50). This antibody has been used to identify this receptor previously in several studies^69. Lineage marker antibodies were used at the dilution of 1:400, unless mentioned otherwise other antibodies were used at the dilution of 1:200.
Intracellular staining was performed using BD Cytofix/Cytoperm kit (BD Bioscience, San Jose, Calif.) according to the manufacturer's instructions. For analysis of GATA3 and Ki-67 expression, freshly isolated cells were fixed and permeabilized using Fixation/Permeabilization buffer kit (eBioscience) according to the manufacturer's instructions and as previously described^70.

[1] = cited from earlier work

In the case of “3-[(3E)-3-[(2,4-dimethoxyphenyl)methylidene]-5,6-dihydro-4H-pyridin-2-yl]pyridine [GTS-21]”, the “expression of CD25, CD127, and ST2 by ILC2s” value (lung ILC2s) is reported as “did not alter”.
In the case of `CN1CCCC1c1cccnc1` (stereo not shown) [nicotine], the AHR ([1]; HDM-induced asthma model) is listed as “not suppressed”, the Th2 cytokines ([1]; HDM-induced asthma model) is listed as “suppression” and the “HDM-induced allergic lung inflammation” value ([1]; asthma model) is listed as “attenuated”.
